Source: US9975853B2, “Tetrahydroisoquinolinone derivatives and their use in the inhibition of the HSP70 protein” (Julius-Maximilians-Universitaet Wuerzburg, priority 2014, dated 2018)

What was measured:
Type in all cases: cell-based, human
HSP90 = test: Western blot analysis of HSP90 expression in INA-6 cells; conditions: INA-6, 0.6 μM, with Z-VAD-FMK 50 μM
Procedure: Western Blot Analysis. Protein expression levels were determined with Western blotting procedures (M. Chatterjee, et al., Blood 2002, 100, 3311-3318). Following separation by SDS-PAGE, proteins were transferred onto nitrocellulose membranes (Schleicher & Schuell, Dassel, Germany) and stained with antibodies against Hsp72, Hsp73, Hsp90 (all from Enzo Life Science, Lörrach, Germany), AIF, lamin A, caspases 9 and 3, PARP (all from Santa Cruz, Heidelberg, Germany). An anti-α tubulin antibody (Sigma, Deisenhofen, Germany) was employed to assess equal loading. Secondary antibodies used were anti-rat (Enzo Life Science), anti-rabbit and anti-mouse (both from GE Healthcare, Little Chalfont, UK). […] The heat shock proteins HSP72 and HSP73 critically interact with HSP90 in order to mediate an essential chaperone function for a multitude of proteins including various signaling intermediates. According to an established HSP72/73-dependent client protein signature and its role for survival in MM, the proposed anti-HSP72/73 effect of trans-7b in the INA-6 multiple myeloma (MM) cell line model was evaluated. […] Lysates were cleared by centrifugation, measured by quantitative protein assay (Bio-Rad, München, Germany) and subjected to SDS gel electrophoresis. […]

[1] = system: apoptosis-inducing factor (AIF); test: Apoptosis assay: nuclear translocation of AIF in INA-6 cells (Western blot); conditions: INA-6, 0.6 μM, 8 hours, nuclear pellets
Procedure: Apoptosis Assays. Hsp70-dependent prevention of apoptosis was investigated by analyses of the apoptosis-inducing factors (AIF) and of the caspases 9 and 3 in INA-6 cells. INA-6 cells were treated with 0.6 μM of compound trans-7b for 8 hours prior to analyze nuclear translocation of AIF. Staining of the nuclear protein lamin A was used as a loading control. […] Analysis of cleavage of the bona fide caspase substrate PARP served as a control for caspase activation. Co-treatment with the pan-caspase inhibitor Z-VAD-FMK (50 μM) was employed as another specificity control.
Western Blot Analysis. Protein expression levels were determined with Western blotting procedures (M. Chatterjee, et al., Blood 2002, 100, 3311-3318). Following separation by SDS-PAGE, proteins were transferred onto nitrocellulose membranes (Schleicher & Schuell, Dassel, Germany) and stained with antibodies against Hsp72, Hsp73, Hsp90 (all from Enzo Life Science, Lörrach, Germany), AIF, lamin A, caspases 9 and 3, PARP (all from Santa Cruz, Heidelberg, Germany). […] According to an established HSP72/73-dependent client protein signature and its role for survival in MM, the proposed anti-HSP72/73 effect of trans-7b in the INA-6 multiple myeloma (MM) cell line model was evaluated. […] Lysates were cleared by centrifugation, measured by quantitative protein assay (Bio-Rad, München, Germany) and subjected to SDS gel electrophoresis. […]

INA-6 cells = test: Viability of INA-6 cells under concomitant treatment with HSP90 inhibitor NVP-AUY922; conditions: AUY922 7.5 nM plus trans-7b 3.5 μM, sublethal concentrations
Procedure: The heat shock protein HSP90, which critically cooperates with HSP72 and HSP73 to mediate a chaperone function for a multitude of proteins, is regarded as a reasonable therapeutic target in MM. […] Therefore, potential effects of a concomitant treatment of trans-7b with the HSP90 inhibitor NVP-AUY922 on viability of INA-6 cells were analyzed. INA-6 cells were incubated either with DMSO (as a solvent control), sublethal concentrations of AUY922 (7.5 nM) or trans-7b (3.5 μM) or with a combination of both. Viability was measured by Annexin V-FITC/propidium iodide double staining (BenderMedSystems, Vienna, Austria) according to the manufacturer's instructions. Cells were washed in PBS, incubated for 15 minutes in 100 ml binding buffer (10 mM HEPES/NaOH, pH 7.4, 140 mM NaCl, 2.5 mM CaCl2) containing 2.5 mL annexin V-FITC mix and 1 mg/ml PI and analyzed by flow cytometry (FACSCalibur/CELLQuest; Becton Dickinson, Heidelberg, Germany). Whereas early apoptosis is characterized by positive annexin V-FITC staining reaction, cells in a late apoptotic stage lose their membrane integrity and additionally incorporate PI. […] Raw data of three independent measurements were set in relation to their respective DMSO controls, and means and standard deviations were calculated using the Graphpad Prism software (Graphpad, La Jolla, USA).

Compound: COc1ccc(C2C(C(=O)Nc3cccc(C)n3)c3ccccc3C(=O)N2c2ccccc2)cc1 (stereo not drawn) [trans-7b, trans-3-(4-Methoxyphenyl)-N-(6-methylpyridin-2-yl)-1-oxo-2-phenyl-1,2,3,4-tetrahydroisoquinoline-4-carboxamide]
- HSP90 expression (HSP90): remains unchanged
- nuclear translocation of activated AIF [1]: shifting from the cytosol to the nucleus
- effect on the apoptotic effect of the HSP90 inhibitor NVP-AUY922 (viability) (INA-6 cells): strongly enhanced
